Results taken from the CheMixHub viscosity set.
± gives the uncertainty stated by the source.

Experiment: xn = mol fraction of the nth substance listed

CCCCCCCCCCCCBr + BrC(Br)C(Br)Br
101 kPa
Settings	viscosity [mPa·s]
298.08 K, x1 = 0.1586	7.196 ± 0.18
298.08 K, x1 = 0.3004	5.936 ± 0.15
298.08 K, x1 = 0.4493	5.091 ± 0.13
298.08 K, x1 = 0.6166	4.392 ± 0.11
298.08 K, x1 = 0.7772	3.877 ± 0.099
303.1 K, x1 = 0.1376	6.506 ± 0.17
303.1 K, x1 = 0.2855	5.399 ± 0.14
303.1 K, x1 = 0.4255	4.58 ± 0.12
303.1 K, x1 = 0.6541	3.787 ± 0.097
303.1 K, x1 = 0.7773	3.437 ± 0.088
308.11 K, x1 = 0.1363	5.669 ± 0.14
308.11 K, x1 = 0.289	4.673 ± 0.12
308.11 K, x1 = 0.4415	4.027 ± 0.1
308.11 K, x1 = 0.6215	3.498 ± 0.09
308.11 K, x1 = 0.7595	3.147 ± 0.081
313.11 K, x1 = 0.1456	5.011 ± 0.13
313.11 K, x1 = 0.2924	4.238 ± 0.11
313.11 K, x1 = 0.4286	3.667 ± 0.094
313.11 K, x1 = 0.634	3.093 ± 0.079
313.11 K, x1 = 0.782	2.781 ± 0.071

CCOC(C)=O + C1CCCCC1
viscosity [mPa·s], 101 kPa
Settings	298.15 K	308.15 K
x1 = 0.0548	0.841 ± 0.085	0.706 ± 0.071
x1 = 0.1549	0.765 ± 0.077	0.63 ± 0.063
x1 = 0.2552	0.7 ± 0.07	0.569 ± 0.057
x1 = 0.3558	0.643 ± 0.065	0.52 ± 0.052
x1 = 0.4539	0.595 ± 0.06	0.481 ± 0.048
x1 = 0.4998	0.575 ± 0.058	0.466 ± 0.047
x1 = 0.5513	0.554 ± 0.056	0.451 ± 0.045
x1 = 0.6549	0.516 ± 0.052	0.426 ± 0.043
x1 = 0.7515	0.486 ± 0.049	0.408 ± 0.041
x1 = 0.8531	0.458 ± 0.046	0.395 ± 0.04
x1 = 0.9536	0.435 ± 0.044	0.387 ± 0.039

CCOc1ccccc1 + C1CCOC1
viscosity [mPa·s], 101.33 kPa
Settings	x1 = 0.031	x1 = 0.072	x1 = 0.117	x1 = 0.197	x1 = 0.246	x1 = 0.326	x1 = 0.492	x1 = 0.695	x1 = 0.899
298 K	0.475 ± 0.011	0.493 ± 0.011	0.515 ± 0.012	0.555 ± 0.013	0.581 ± 0.013	0.627 ± 0.014	0.736 ± 0.016	0.891 ± 0.02	1.067 ± 0.023
303 K	0.451 ± 0.011	0.468 ± 0.011	0.487 ± 0.011	0.524 ± 0.012	0.547 ± 0.012	0.587 ± 0.013	0.684 ± 0.015	0.824 ± 0.018	0.985 ± 0.022
308 K	0.431 ± 0.01	0.447 ± 0.01	0.464 ± 0.011	0.496 ± 0.011	0.518 ± 0.012	0.554 ± 0.013	0.642 ± 0.014	0.766 ± 0.017	0.908 ± 0.02

CCOC(C)=O + C1COCCO1
Settings	viscosity [mPa·s]
303.15 K, 101 kPa, x2 = 0.1021	0.435 ± 0.005
303.15 K, 101 kPa, x2 = 0.2024	0.466 ± 0.005
303.15 K, 101 kPa, x2 = 0.2982	0.505 ± 0.005
303.15 K, 101 kPa, x2 = 0.4026	0.553 ± 0.006
303.15 K, 101 kPa, x2 = 0.4968	0.602 ± 0.006
303.15 K, 101 kPa, x2 = 0.6025	0.668 ± 0.007
303.15 K, 101 kPa, x2 = 0.697	0.742 ± 0.007
303.15 K, 101 kPa, x2 = 0.8007	0.834 ± 0.008
303.15 K, 101 kPa, x2 = 0.9003	0.948 ± 0.009
303.15 K, 101.32 kPa, x1 = 0.0451	1.02 ± 0.03
303.15 K, 101.32 kPa, x1 = 0.0948	0.948 ± 0.024
303.15 K, 101.32 kPa, x1 = 0.1332	0.901 ± 0.023
303.15 K, 101.32 kPa, x1 = 0.1779	0.848 ± 0.022
303.15 K, 101.32 kPa, x1 = 0.2236	0.802 ± 0.021
303.15 K, 101.32 kPa, x1 = 0.3187	0.717 ± 0.019
303.15 K, 101.32 kPa, x1 = 0.4176	0.648 ± 0.017
303.15 K, 101.32 kPa, x1 = 0.467	0.616 ± 0.016
303.15 K, 101.32 kPa, x1 = 0.5155	0.59 ± 0.015
303.15 K, 101.32 kPa, x1 = 0.6182	0.539 ± 0.014
303.15 K, 101.32 kPa, x1 = 0.7243	0.497 ± 0.013
303.15 K, 101.32 kPa, x1 = 0.8297	0.456 ± 0.012
303.15 K, 101.32 kPa, x1 = 0.9411	0.422 ± 0.011
308.15 K, 101 kPa, x2 = 0.1	0.439 ± 0.006
308.15 K, 101 kPa, x2 = 0.2	0.475 ± 0.006
308.15 K, 101 kPa, x2 = 0.3	0.506 ± 0.007
308.15 K, 101 kPa, x2 = 0.4	0.542 ± 0.007
308.15 K, 101 kPa, x2 = 0.5	0.58 ± 0.008
308.15 K, 101 kPa, x2 = 0.6	0.625 ± 0.008
308.15 K, 101 kPa, x2 = 0.8	0.756 ± 0.01
308.15 K, 101 kPa, x2 = 0.9	0.852 ± 0.011
313.15 K, 101.32 kPa, x1 = 0.209	0.717 ± 0.019
313.15 K, 101.32 kPa, x1 = 0.405	0.583 ± 0.015
313.15 K, 101.32 kPa, x1 = 0.5144	0.528 ± 0.014
313.15 K, 101.32 kPa, x1 = 0.602	0.49 ± 0.013
313.15 K, 101.32 kPa, x1 = 0.7994	0.423 ± 0.011
